pIC50: −log10 of the molar value.
How the values were obtained:
[1] = target: carbonic anhydrase I enzyme (Homo sapiens (Human), UniProt P00915); test: Carbonic Anhydrase 1 Enzymatic Assay; format: biochemical; settings: enzyme from human erythrocyte, 500 μM 4-nitrophenyl acetate, absorbance 400 nm; read-out: CA I IC50
Experimental: Carbonic Anhydrase 1 Enzymatic Assay
(§1) Test compound and/or vehicle was preincubated with carbonic anhydrase I enzyme (15 μg/ml) isolated from human erythrocyte in reaction buffer (50 mM MOPS solution pH 7.5) for 15 minutes at 25° C. The reaction was initiated by addition of 500 μM 4-nitrophenyl acetate and incubated for 30 minutes. The plate was read on a spectrophotometer (Absorbance: 400 nm)

[2] = target: Recombinant human ENPP3 protein (Homo sapiens (Human), UniProt O14638); test: ENPP3 cGAMP Biochemical Assay; settings: 70.5 nM ENPP3, 120 μM 2′3′-cGAMP substrate, TR-FRET
Chain of Recombinant human ENPP3 protein (O14638 whole entry): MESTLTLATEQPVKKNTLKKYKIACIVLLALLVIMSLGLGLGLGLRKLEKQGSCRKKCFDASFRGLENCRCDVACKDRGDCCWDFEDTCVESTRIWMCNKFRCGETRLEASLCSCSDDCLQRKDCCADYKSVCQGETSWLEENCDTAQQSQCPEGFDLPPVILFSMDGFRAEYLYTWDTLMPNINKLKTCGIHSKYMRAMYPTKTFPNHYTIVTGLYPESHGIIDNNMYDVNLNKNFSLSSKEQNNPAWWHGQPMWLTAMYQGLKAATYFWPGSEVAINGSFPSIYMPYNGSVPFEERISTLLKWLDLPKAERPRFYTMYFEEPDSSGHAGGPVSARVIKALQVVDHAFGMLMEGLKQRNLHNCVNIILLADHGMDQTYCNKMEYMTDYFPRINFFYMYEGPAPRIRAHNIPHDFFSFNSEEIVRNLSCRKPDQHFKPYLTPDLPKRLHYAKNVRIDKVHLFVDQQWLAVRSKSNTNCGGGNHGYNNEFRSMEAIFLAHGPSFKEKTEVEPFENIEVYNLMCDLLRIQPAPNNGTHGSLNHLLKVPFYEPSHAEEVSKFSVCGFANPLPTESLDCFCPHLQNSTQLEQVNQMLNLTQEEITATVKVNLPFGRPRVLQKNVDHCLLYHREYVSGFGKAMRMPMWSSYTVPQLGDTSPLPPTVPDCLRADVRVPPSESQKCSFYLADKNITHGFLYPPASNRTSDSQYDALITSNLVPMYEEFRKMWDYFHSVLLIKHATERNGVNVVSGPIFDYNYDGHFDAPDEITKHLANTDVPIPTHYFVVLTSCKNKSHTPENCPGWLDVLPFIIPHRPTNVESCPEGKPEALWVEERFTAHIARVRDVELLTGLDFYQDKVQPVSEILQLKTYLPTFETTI
Experimental: ENPP3 cGAMP Biochemical Assay
Compounds were added to 384 well Proxiplate (PerkinElmer, Waltham MA) at 100 nl/well from DMSO stocks using Echo (Labcyte, San Jose CA). Recombinant human ENPP3 protein (Acro Biosystems, Newwark DE) was prepared in assay buffer (50 mM Tris pH7.5, 1 mM TCEP pH7.0, 2 mM MgCl2, 2 mM CaCl2), 2 mM ZnCl2 and 0.005% Tween20) and added at 2 μl/well. The plate was sealed, centrifuged at 1000 rpm for 1 minute and incubated at room temperature for 30 minutes before 2 μl substrate 2′3′-cGAMP (R&D Systems, Minneapolis MN) in assay buffer was added to each well to a final concentration of 70.5 nM ENPP3 and 120 μM 2′3′-cGAMP. The plate was sealed and centrifuged at 1000 rpm for 1 minute again. After incubation at 25° C. for 60 minutes, Terbium labelled AMP/GMP antibody and AMP/GMP HiLyte647 Tracer (BellBrook Labs, Fitchburg WI) in detection buffer (50 mM Tris pH7.5, 20 mM EDTA and 0.1% Prionex) were added to the reaction mixture to a final concentration of 475 nM and 3 nM respectively. The assay plate was incubated at room temperature for 120 minutes. TR-FRET signal was detected using Envision (PerkinElmer, Waltham MA).

[3] = target: carbonic anhydrase II enzyme (Homo sapiens (Human), UniProt P00918); test: Carbonic Anhydrase 2 Enzymatic Assay; format: biochemical; settings: enzyme from human erythrocyte, 500 μM 4-nitrophenyl acetate, absorbance 400 nm; read-out: CA II IC50
Experimental: Carbonic Anhydrase 2 Enzymatic Assay
as §1, with “II” for “I”

[4] = target: Recombinant human ENPP1 protein (Homo sapiens (Human), UniProt P22413); test: ENPP1 cGAMP Biochemical Assay; settings: 0.5 nM ENPP1, 1000 nM 2′3′-cGAMP substrate, TR-FRET
Chain of Recombinant human ENPP1 protein (P22413 whole entry): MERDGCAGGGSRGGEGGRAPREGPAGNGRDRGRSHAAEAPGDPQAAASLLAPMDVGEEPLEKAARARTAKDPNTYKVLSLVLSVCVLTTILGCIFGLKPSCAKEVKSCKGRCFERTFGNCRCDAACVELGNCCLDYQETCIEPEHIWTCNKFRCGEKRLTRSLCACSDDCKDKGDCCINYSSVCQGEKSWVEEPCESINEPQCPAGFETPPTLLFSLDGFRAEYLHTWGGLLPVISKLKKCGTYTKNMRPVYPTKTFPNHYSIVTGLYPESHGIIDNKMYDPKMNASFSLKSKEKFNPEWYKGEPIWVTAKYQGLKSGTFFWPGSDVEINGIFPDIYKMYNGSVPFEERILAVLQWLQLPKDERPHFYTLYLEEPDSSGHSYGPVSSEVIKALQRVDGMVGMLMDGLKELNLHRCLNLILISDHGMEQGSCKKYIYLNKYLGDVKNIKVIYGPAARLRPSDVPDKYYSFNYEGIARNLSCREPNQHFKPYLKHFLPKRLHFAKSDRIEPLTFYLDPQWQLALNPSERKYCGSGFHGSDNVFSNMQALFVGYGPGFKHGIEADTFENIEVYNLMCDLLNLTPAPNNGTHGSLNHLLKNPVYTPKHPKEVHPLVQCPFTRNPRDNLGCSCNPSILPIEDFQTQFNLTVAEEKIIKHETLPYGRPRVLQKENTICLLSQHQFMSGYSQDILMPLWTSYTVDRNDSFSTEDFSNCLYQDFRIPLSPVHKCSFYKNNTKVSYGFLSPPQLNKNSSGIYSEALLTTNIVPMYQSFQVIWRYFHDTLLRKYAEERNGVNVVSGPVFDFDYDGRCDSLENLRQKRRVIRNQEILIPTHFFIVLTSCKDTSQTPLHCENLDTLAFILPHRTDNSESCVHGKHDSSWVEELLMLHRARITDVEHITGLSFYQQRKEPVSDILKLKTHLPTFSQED
Experimental: ENPP1 cGAMP Biochemical Assay
Compounds were added to 384 well Proxiplate (PerkinElmer, Waltham MA) at 100 nl/well from DMSO stocks using Echo (Labcyte, San Jose CA). Recombinant human ENPP1 protein (R&D Systems, Minneapolis MN) was prepared in assay buffer (50 mM Tris pH7.5, 1 mM TCEP pH7.0, 2 mM MgCl2 and 0.005% Tween20) and added at 10 μl/well. The plate was sealed, centrifuged at 1000 rpm for 1 minute and incubated at room temperature for 30 minutes before 5 μl substrate 2′3′-cGAMP (R&D Systems, Minneapolis MN) in assay buffer was added to each well to a final concentration of 0.5 nM ENPP1 and 1000 nM 2′3′-cGAMP. The plate was sealed and centrifuged at 1000 rpm for 1 minute again. After incubation at 25° C. for 60 minutes, Terbium labelled AMP/GMP antibody and AMP/GMP HiLyte647 Tracer (BellBrook Labs, Fitchburg WI) in detection buffer (50 mM Tris pH7.5, 20 mM EDTA and 0.1% Prionex) were added to the reaction mixture to a final concentration of 2 nM (5 μl/well). The assay plate was incubated at room temperature for 120 minutes. TR-FRET signal was detected using Envision (PerkinElmer, Waltham MA).

Chain of carbonic anhydrase I enzyme (P00915 whole entry): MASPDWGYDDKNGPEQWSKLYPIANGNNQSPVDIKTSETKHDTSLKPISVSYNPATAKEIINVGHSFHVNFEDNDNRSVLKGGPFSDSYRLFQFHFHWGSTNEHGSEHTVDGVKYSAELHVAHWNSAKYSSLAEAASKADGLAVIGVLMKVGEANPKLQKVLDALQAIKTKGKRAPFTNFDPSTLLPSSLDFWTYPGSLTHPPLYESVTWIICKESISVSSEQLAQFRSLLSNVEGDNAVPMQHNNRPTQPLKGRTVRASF

Compound	pIC50 [1]	pIC50 [2]	pIC50 [3]	pIC50 [4]
CCn1ncc2c(NCC3CCN(S(C)(=N)=O)CC3)ccnc21 (centres unmarked) [Compound 4A, 1-ethyl-N-((1-(S-methylsulfonimidoyl)piperidin-4-yl)methyl)-1H-pyrazolo[3,4-b]pyridin-4-amine]	≤ 6.00	≤ 6.00	≤ 6.00	–
CCn1nc(Cl)c2c(NCc3ccc([S@@](N)(=O)=NC)cc3)ccnc21 [Compound 12C, (S)-4-(((3-chloro-1-ethyl-1H-pyrazolo[3,4-b]pyridin-4-yl)amino)methyl)-N′-methyl benzenesulfonimidamide]	–	≤ 6.00	–	7.00 to 8.00
CCn1nc(Cl)c2c(NCc3ccc([S@](N)(=O)=NC)cc3)ccnc21 [Compound 12D, (R)-4-(((3-chloro-1-ethyl-1H-pyrazolo[3,4-b]pyridin-4-yl)amino)methyl)-N′-methyl benzenesulfonimidamide]	–	≤ 6.00	–	7.00 to 8.00
CCn1nc(Cl)c2c(NCc3ccc(S(N)(=O)=NCC(F)(F)F)cc3)ccnc21 (centres unmarked) [Compound 12E, 4-(((3-chloro-1-ethyl-1H-pyrazolo[3,4-b]pyridin-4-yl)amino)methyl)-N′-(2,2,2-trifluoroethyl) benzenesulfonimidamide]	–	≤ 6.00	–	7.00 to 8.00
CCn1nc(Cl)c2c(NCc3ccc(S(N)(=O)=NC#N)cc3)ccnc21 (centres unmarked) [Compound 12F, 4-(((3-chloro-1-ethyl-1H-pyrazolo[3,4-b]pyridine-4-yl)amino)methyl)-N′-cyano benzenesulfonimidamide]	–	7.00 to 8.00	–	> 8.00
C#CCn1nc(Cl)c2c(NCC3CCN(S(C)(=N)=O)CC3)ccnc21 (centres unmarked) [Compound 13A, 3-chloro-N-((1-(S-methylsulfonimidoyl)piperidin-4-yl)methyl)-1-(prop-2-yn-1-yl)-1H-pyrazolo[3,4-b]pyridin-4-amine]	–	7.00 to 8.00	–	> 8.00
C#CCn1nc(Cl)c2c(NCC3CCN([S@](C)(=N)=O)CC3)ccnc21 [Compound 13B, (S)-3-chloro-N-((1-(S-methylsulfonimidoyl)piperidin-4-yl)methyl)-1-(prop-2-yn-1-yl)-1H-pyrazolo[3,4-b]pyridin-4-amine]	–	7.00 to 8.00	–	> 8.00
C#CCn1nc(Cl)c2c(NCC3CCN([S@@](C)(=N)=O)CC3)ccnc21 [Compound 13C, (R)-3-chloro-N-((1-(S-methylsulfonimidoyl)piperidin-4-yl)methyl)-1-(prop-2-yn-1-yl)-1H-pyrazolo[3,4-b]pyridin-4-amine]	–	≤ 6.00	–	> 8.00
CS(=N)(=O)N1CCC(CNc2ccnc3c2c(Cl)nn3CC#N)CC1 (centres unmarked) [Compound 13D, 2-(3-chloro-4-(((1-(S-methylsulfonimidoyl)piperidin-4-yl)methyl)amino)-1H-pyrazolo[3,4-b]pyridin-1-yl)acetonitrile]	–	7.00 to 8.00	–	> 8.00
C[S@@](=N)(=O)N1CCC(CNc2ccnc3c2c(Cl)nn3CC#N)CC1 [Compound 13E, (S)-2-(3-chloro-4-(((1-(S-methylsulfonimidoyl)piperidin-4-yl)methyl)amino)-1H-pyrazolo[3,4-b]pyridin-1-yl)acetonitrile]	–	7.00 to 8.00	–	> 8.00
C[S@](=N)(=O)N1CCC(CNc2ccnc3c2c(Cl)nn3CC#N)CC1 [Compound 13F, (R)-2-(3-chloro-4-(((1-(S-methylsulfonimidoyl)piperidin-4-yl)methyl)amino)-1H-pyrazolo[3,4-b]pyridin-1-yl)acetonitrile]	–	≤ 6.00	–	6.00 to 7.00
CCn1nc(Cl)c2c(NCC3CCN([S@@](C)(=N)=O)CC3)ccnc21 [Compound 13G, (R)-3-chloro-1-ethyl-N-((1-(S-methylsulfonimidoyl)piperidin-4-yl)methyl)-1H-pyrazolo[3,4-b]pyridin-4-amine]	–	≤ 6.00	–	7.00 to 8.00
CCn1nc(Cl)c2c(NCC3CCN([S@](C)(=N)=O)CC3)ccnc21 [Compound 13H, (S)-3-chloro-1-ethyl-N-((1-(S-methylsulfonimidoyl)piperidin-4-yl)methyl)-1H-pyrazolo[3,4-b]pyridin-4-amine]	–	≤ 6.00	–	7.00 to 8.00

Now from value to compound:

pIC50 [1]	pIC50 [2]	pIC50 [3]	pIC50 [4]	Compound
–	≤ 6.00	–	7.00 to 8.00	CCn1nc(Cl)c2c(NCC3CCN(S(=N)(=O)CCOC)CC3)ccnc21 (centres unmarked) [Compound 14B, 3-chloro-1-ethyl-N-((1-(2-methoxyethylsulfonimidoyl)piperidin-4-yl)methyl)-1H-pyrazolo[3,4-b]pyridin-4-amine]
–	≤ 6.00	–	7.00 to 8.00	CCn1nc(Cl)c2c(NCC3CCN([S@@](=N)(=O)CCOC)CC3)ccnc21 [Compound 14C, (R)-3-chloro-1-ethyl-N-((1-(2-methoxyethylsulfonimidoyl)piperidin-4-yl)methyl)-1H-pyrazolo[3,4-b]pyridin-4-amine]
–	≤ 6.00	–	7.00 to 8.00	CCn1nc(Cl)c2c(NCC3CCN([S@](=N)(=O)CCOC)CC3)ccnc21 [Compound 14D, (S)-3-chloro-1-ethyl-N-((1-(2-methoxyethylsulfonimidoyl)piperidin-4-yl)methyl)-1H-pyrazolo[3,4-b]pyridin-4-amine]
–	6.00 to 7.00	–	> 8.00	CCn1nc(Cl)c2c(NCC3CCN(S(=N)(=O)CCC(=O)O)CC3)ccnc21 (centres unmarked) [Compound 14F, 3-(4-(((3-chloro-1-ethyl-1H-pyrazolo[3,4-b]pyridin-4-yl)amino)methyl)piperidine-1-sulfonimidoyl)propanoic acid]
–	≤ 6.00	–	> 8.00	C#CCn1nc(Cl)c2c(NCC3CCN([S@@](C)(=O)=NC#N)CC3)ccnc21 [Compound 14I, (S)-N-((4-(((3-chloro-1-(prop-2-yn-1-yl)-1H-pyrazolo[3,4-b]pyridin-4-yl)amino)methyl)piperidin-1-yl)(methyl)(oxo)-λ6-sulfaneylidene)cyanamide]
–	≤ 6.00	–	6.00 to 7.00	C#CCn1nc(Cl)c2c(NCC3CCN([S@](C)(=O)=NC#N)CC3)ccnc21 [Compound 14J, (R)-N-((4-(((3-chloro-1-(prop-2-yn-1-yl)-1H-pyrazolo[3,4-b]pyridin-4-yl)amino)methyl)piperidin-1-yl)(methyl)(oxo)-λ6-sulfaneylidene)cyanamide]
–	7.00 to 8.00	–	> 8.00	CN=S(N)(=O)N1CCC(CNc2ccnc3c2c(Cl)nn3CC#N)CC1 (centres unmarked) [Compound 15A, 4-(((3-chloro-1-(cyanomethyl)-1H-pyrazolo[3,4-b]pyridin-4-yl)amino)methyl)-N′-methylpiperidine-1-sulfonimidamide]
–	> 8.00	–	> 8.00	N#CCn1nc(Cl)c2c(NCC3CCN(S(N)(=O)=NC#N)CC3)ccnc21 (centres unmarked) [Compound 15B, 4-(((3-chloro-1-(cyanomethyl)-1H-pyrazolo[3,4-b]pyridin-4-yl)amino)methyl)-N′-cyanopiperidine-1-sulfonimidamide]
–	6.00 to 7.00	–	> 8.00	C#CCn1nc(Cl)c2c(NCC3CCN(S(=N)(N)=O)CC3)ccnc21 (centres unmarked) [Compound 15I, 4-(((3-chloro-1-(prop-2-yn-1-yl)-1H-pyrazolo[3,4-b]pyridin-4-yl)amino)methyl)piperidine-1-sulfonimidamide]
–	≤ 6.00	–	≤ 6.00	CCn1ncc2c(Oc3ccc(S(N)(=O)=NCC4CC4)cc3)ccnc21 (centres unmarked) [Compound 16A, N′-(cyclopropylmethyl)-4-((1-ethyl-1H-pyrazolo [3,4-b]pyridin-4-yl)oxy)benzenesulfonimidamide]
